Reference: US20030207014A1, “Animal feed and additive for animal feed to control feed borne pathogens” (priority 2002, published 2003)

Legend:
[1] = stability under pressure steam sterilization; assay type: physicochemical
[2] = system: microbes present in animal feeds; assay: laboratory tests of anti-microbial action in animal feed
Excerpt: These properties make sodium percarbonate an ideal feed additive for animal feeds. In the preferred embodiments of the present invention sodium percarbonate is included in the feed formulations prior to the pellet forming process common to most animal feed processing procedures. […] This is due to the broad disinfection action of the sodium percarbonate upon all bacteria and the spores of bacteria, fungi, and algae.
Such mammalian animal proteins have been banned throughout Europe although they continue to be used in other parts of the world. Otherwise the animal feeds in accordance with present invention are substantially the same as conventional animal feeds with the addition of sodium percarbonate.

[3] = feeding of treated feed to livestock / poultry; assay type: in vivo
Excerpt: The preferred proportion of sodium percarbonate will vary for the specific animal feed composition and the specific animal consuming the feed as well as various environmental factors.

For O=C([O-])[O-].O=C([O-])[O-].OO.OO.OO.[Na+].[Na+].[Na+].[Na+] [sodium percarbonate], which stability [1] is on record?
Its stability is “very stable”.

And the “effectiveness depending on feed composition” value ([2]; animal feeds that do not include mammalian animal proteins)?
The value was “greatest”.

And the anti-microbial effectiveness ([2]; laboratory tests, all bacteria and spores of bacteria, fungi, algae)?
Its anti-microbial effectiveness is “effective against all microbes present in animal feeds”.

What about the “acceptance of treated feed” value ([3]; livestock) of the same compound?
Its value is “readily accepted”.

What about the digestive reactions ([3]; poultry, rates of 2-8% by weight in feed) of the same compound?
Its digestive reactions is “no untold digestive reactions”.
